Consider 17 compounds from PubChem BioAssay (NCI).

“And” between values parts separate entries of the source, which are not always exact repeats. Equal values may be shown once.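 Assay format: 96-well plates, 48-hour exposure. Abbreviation: GI50, concentration required for 50% inhibition of growth. TGI marks complete inhibition of growth.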

Common to all, as to assay: growth of human tumour cells (NCI), 48 h
Test [1] relates to ACHN renal.
For test [2], the system named is HCT-15 colon.
Test [3] deals with HL-60(TB) leukemia.
Test [4] concerns HOP-62 NSCLC.
Test [5] has as its system KM12 colon.
Test [6] has as its system NCI-H226 lung.
The subject of test [7] is OVCAR-4 ovarian.
For test [8], the system named is PC-3 prostate.
In test [9] the test system is SF-268 CNS.
Test [10] deals with SK-OV-3 ovarian.

For the compound `C=CC(=O)N1CCC(Oc2cc3c(Nc4ccc(Cl)c(Cl)c4F)ncnc3cc2OC)CC1`, the GI50 in [1] is less than 0.001 µM; in test [2] it was 2.52 µM and 2.23 µM; in test [3], 8.97 µM and 3.77 µM; in test [4], 3.88 µM and 3.1 µM; in [5], 7.96 µM and 4.12 µM; in test [6], 1.84 µM and 0.944 µM. Further, the GI50 in [7] is 2.65 µM and 2.56 µM; in test [8], 7.66 µM and 2.95 µM; in test [9] it was 0.743 µM and 0.466 µM; in [10], less than 0.001 µM. The TGI is 14.9 µM and > 10 µM in test [1]; 15.6 µM and > 10 µM in test [2]; 48.5 µM and > 10 µM in test [3]; 25.1 µM and > 10 µM in test [4]; 27.1 µM and > 10 µM in [5]; 16.2 µM and > 10 µM in test [6]. For the same compound, the TGI is 31.5 µM and > 10 µM in test [7]; 24.5 µM and > 10 µM in test [8]; 19.4 µM and > 7.14 µM in test [9].

`CCCCCCCCCCCCCCCCCCOC[C@H](COP(=O)(O)O[C@H]1[C@H](O)[C@@H](O)[C@H](O)C[C@H]1O)OC`: the GI50 in test [1] was > 100 µM and 16.3 µM; in [2], 37.2 µM and 14.3 µM; in test [3] it was 35 µM and 9.09 µM; in test [4], > 100 µM and 15.7 µM; in [5], 25.9 µM and 4.67 µM; in [6], > 100 µM and 24 µM. Besides, the GI50 was > 100 µM and 16 µM in test [7]; 7.44 µM and 2.94 µM in test [8]; > 100 µM and 15 µM in test [9]; > 100 µM and 17.4 µM in test [10]. Moreover, the TGI in test [1] is > 100 µM and 30 µM; in test [2], > 100 µM and 28.9 µM; in test [3] it was > 100 µM and 23.3 µM; in test [4], > 100 µM and 41.5 µM; in [5], > 100 µM and 28.1 µM; in test [6], > 100 µM and 44.5 µM. For the same compound, the TGI in test [7] was > 100 µM and 36.8 µM; in [8], 43.3 µM and 14.1 µM; in test [9], > 100 µM and 29.7 µM; in test [10] it was > 100 µM and 34 µM.

Turning to `CC(=O)OC1OC([C@H]2c3cccc(O)c3C(=O)c3c(O)cc(C)cc32)C(O)C(O)C1O` (stereo partly specified), the GI50 was 0.0729 µM in test [1]; 0.0385 µM in test [2]; 0.0157 µM in test [3]; 0.065 µM in test [4]; 0.202 µM in [5]; less than 0.01 µM in test [6]. Moreover, the GI50 is less than 0.0402 µM in test [7], 0.0788 µM in test [9] and 0.0576 µM in [10]. Also, the TGI in test [1] is 0.437 µM; in test [2] it was 2 µM; in [3] it was 0.0472 µM; in test [4] it was 1.93 µM; in [5], 0.624 µM; in test [6] it was 0.0455 µM. In addition, the TGI in [7] is more than 89.2 µM; in [8], 1.09 µM; in test [9] it was 1.74 µM; in [10] it was 12.3 µM.

Regarding `CN(C)Cc1cc(C(F)(F)F)ccc1C(O)(c1ccccc1)c1ccccc1`, the TGI was 29.9 µM in test [1]; 28.6 µM in test [2]; 24.7 µM in [3]; 33.7 µM in [4]; 49.6 µM in [5]; 31.1 µM in [6]. The TGI in test [7] was 37.5 µM; in test [8], 36 µM; in [9], 34.3 µM; in test [10], 56.5 µM.

For the compound `NCCCNCCS`, the TGI in test [1], in test [2], in [3], in test [4], in [5] and in [6] was more than 100 µM in each case. In addition, the TGI in [7], in [8], in test [9] and in [10] was more than 100 µM throughout.

With `CN(C)CCC(=O)N1C/C(=C\c2ccc(Cl)c(Cl)c2)C(=O)/C(=C/c2ccc(Cl)c(Cl)c2)C1`, the TGI stood at 1.05 µM in test [1]; 0.493 µM in test [2]; 0.162 µM in [3]; 0.941 µM in test [4]; 0.948 µM in test [5]; 1.86 µM in [6]. For the same compound, the TGI in test [7] worked out at 0.777 µM; in [8] it was 0.398 µM; in test [9], 0.653 µM; in test [10], 3.76 µM.

For the compound `CCN(CC)CCNC(Cc1ccccc1)c1ccc(OCc2ccccc2)cc1` (stereo unspecified), the GI50 in test [1] is 7.85 µM; in test [2] it was 3.36 µM; in test [3], 2.77 µM; in test [4], 8.49 µM; in [5], 5.22 µM; in test [6], 13.8 µM. In addition, the GI50 in test [7] is 5.42 µM; in test [8] it was 3.68 µM; in test [9] it was 7.57 µM; in test [10] it was 10.9 µM. Further, the TGI was 21.6 µM in test [1]; 13 µM in test [2]; 7.79 µM in test [3]; 21.7 µM in test [4]; 18.2 µM in test [5]; 34.8 µM in test [6]. In addition, the TGI in test [7] worked out at 19.4 µM; in [8], 15.7 µM; in test [9], 22.3 µM; in [10], 23.6 µM.

In the case of `O=C1C=CC(=O)C2C1C1(Cl)C(Cl)=C(Cl)C2(Cl)C1(Cl)Cl` (stereo unspecified), the GI50 in test [1] was 4.18 µM; in test [2] it was 4.11 µM; in test [3] it was 2.71 µM; in test [4] it was 10.6 µM; in [5], 2.63 µM; in [6] it was 10.8 µM. Also, the GI50 in [7] is 7.38 µM; in [8], 2.73 µM; in test [9] it was 3.16 µM; in test [10] it was 7.85 µM. In addition, the TGI was determined as 18.3 µM in [1]; 22.4 µM in test [2]; 11 µM in [3]; 26.2 µM in [4]; 8.95 µM in [5]; 49.1 µM in test [6]. Also, the TGI is more than 100 µM in [7], 20 µM in [8], 14.8 µM in [9] and 21.1 µM in test [10].

Consider `CC(C)(C)c1cc([N+](=O)[O-])cc([N+](=O)[O-])c1O`, for which the TGI in [1], in [2], in test [3], in test [4], in test [5] and in [6] was more than 10 µM each time. Besides, the TGI in test [7], in [8], in test [9] and in test [10] was more than 10 µM in each case.

In the case of `Cc1ccc(C2=C(c3ccc(C)cc3)C3(c4ccc(C)cc4)C4C(=O)OC(=O)C4C2(c2ccc(C)cc2)S3=O)cc1` (stereo unspecified), the GI50 was 15.8 µM in test [1]; 33.5 µM in test [2]; 25.5 µM in test [3]; 16.4 µM in [4]; 22.9 µM in test [5]; 11 µM in test [6]. The GI50 was 59.6 µM in [7], 25 µM in test [8], 38.5 µM in [9] and 26.8 µM in test [10]. Also, the TGI in test [1] is 83.3 µM; in [2], more than 100 µM; in test [3] it was more than 100 µM; in test [4] it was 42.5 µM; in [5] it was 76.1 µM; in [6], 48.3 µM. Also, the TGI was more than 100 µM in [7], more than 100 µM in [8], more than 100 µM in test [9] and 98.7 µM in test [10].

For the compound `COc1cccc2c1C(=N)c1c(O)c3c(c(O)c1C2=O)C[C@@](O)(C(C)=O)C[C@@H]3O[C@H]1C[C@H](N)[C@H](O)[C@H](C)O1`, the GI50 in [1] is 0.419 µM; in test [2] it was 2.53 µM; in [3], 0.112 µM; in test [4], 0.152 µM; in test [5] it was 1.32 µM; in [6] it was 0.167 µM. Also, the GI50 is 1.3 µM in test [8], 0.339 µM in test [9] and 0.288 µM in [10]. For the same compound, the TGI is 3.1 µM in [1]; 18.2 µM in test [2]; 2.36 µM in test [3]; 1.37 µM in test [4]; 8.68 µM in test [5]; 1.4 µM in test [6]. In addition, the TGI in test [7] turned out to be 7.68 µM; in [8] it was 9.33 µM; in test [9] it was 3.62 µM; in test [10] it was 2.6 µM.

Regarding `COc1ccc(C(C#N)NC23CC4CC(CC(C4)C2)C3)cc1` (stereo unspecified), the TGI in test [1], in test [2], in [3], in test [4], in [5] and in [6] was more than 100 µM throughout. Moreover, the TGI in test [7], in [8], in [9] and in [10] was more than 100 µM in each case.

As to `COC(=O)c1ccc2[nH]c(O)c(C(=Nc3ccc(N(C)C(=O)CN4CCN(C)CC4)cc3)c3ccc4c(c3)OCO4)c2c1`, the GI50 in test [1] was 1.58 µM; in [2] it was 1.52 µM; in [3] it was 0.415 µM; in [4], 0.939 µM; in test [5], 0.0429 µM; in test [6], 0.616 µM. The GI50 in test [7] is 0.761 µM; in [8], 0.489 µM; in test [9] it was 0.929 µM; in test [10], 0.197 µM. Moreover, the TGI in test [1] is 7.11 µM; in test [2] it was 5.8 µM; in test [3], 1.82 µM; in test [4], 4.53 µM; in test [5], 1.69 µM; in [6], 6.13 µM. The TGI came out at 2.72 µM in test [7], 3.39 µM in test [8], 3.86 µM in test [9] and 1.19 µM in [10].

For the compound `Nc1ncnc2c1ncn2C1C=C(CO)C(O)C1O` (stereo unspecified), the TGI in test [1] is 66.9 µM; in test [2], more than 53.7 µM; in [3] it was 2.73 µM; in [4], more than 100 µM; in test [5], more than 100 µM; in [6], more than 100 µM. Besides, the TGI is more than 56.8 µM in [7], 60.5 µM in test [8], more than 100 µM in [9] and 44.2 µM in test [10].

Regarding `O=C(NC(=O)c1c(F)cccc1F)Nc1cccc(Oc2ncc(Cl)cn2)c1`, the TGI is more than 100 µM in test [1]; more than 100 µM in test [2]; more than 100 µM in test [3]; 73.6 µM in test [4]; more than 100 µM in [5]; more than 100 µM in [6]. Besides, the TGI in [7] was more than 100 µM; in test [8], more than 100 µM; in test [9], 77.3 µM; in test [10], more than 93.3 µM.

As to `CN(c1ccc(NC(=O)Nc2c(Cl)cccc2Cl)cc1)c1ccnc(Nc2cccc(CS(C)(=O)=O)c2)n1`, the GI50 is 3.48 µM in [1]; 5.6 µM in test [2]; 24.6 µM in test [3]; 3.71 µM in test [4]; 0.104 µM in [5]; 4.67 µM in [6]. In addition, the GI50 in test [7] was 3.12 µM; in test [8] it was 1.56 µM; in test [9], 2.19 µM; in test [10] it was 4.72 µM. In addition, the TGI was 8.79 µM in test [1]; more than 25 µM in test [2]; more than 25 µM in test [3]; 11.9 µM in [4]; 5.12 µM in test [5]; more than 20.2 µM in test [6]. Further, the TGI in test [7] came out at 12.5 µM; in [8], 8.6 µM; in test [9], 10.7 µM; in [10], 12 µM.

On to `C#CC1(O)C(COP(=O)(O)OCC(COP(=O)(O)OCC2OC(n3cc(F)c(=O)[nH]c3=O)CC2O)OCCCCCCCCCCCCCCCCCC)OC(n2ccc(N)nc2=O)C1O` (stereo unspecified), for which the GI50 is 0.149 µM in test [1]; 0.134 µM in [2]; 0.982 µM in [3]; 0.0631 µM in test [4]; 0.0933 µM in [5]; 0.113 µM in test [6]. Further, the GI50 in [7] is 0.992 µM; in [8], 0.0397 µM; in [9], 0.102 µM; in test [10] it was 10.1 µM. The TGI is more than 100 µM in test [1]; more than 100 µM in [2]; more than 100 µM in test [3]; 10.6 µM in test [4]; more than 34.1 µM in test [5]; more than 100 µM in [7]. In addition, the values for the TGI in test [8], in [9] and in test [10] were 6.72 µM, 9.45 µM and 76.3 µM, respectively.
